The values that follow are results of earlier work, collected in patent publication US20040266797A1, “Use of potent,selective and non toxic c-kit inhibitors for treating tumor angiogensis” (priority 2001, published 2004).

The test system of this data set is tumor growth. To be noted: inhibiting mast cell degranulation.

Take `O=C([O-])c1cc(=O)c2c(OCC(O)COc3cccc4oc(C(=O)[O-])cc(=O)c34)cccc2o1.[Na+].[Na+]` [disodium cromoglycate]: the tumor growth entry is recorded as “significantly depresse tumor growth”.
